Patent US5684003A, “5-HT4 receptor agonists” (Nisshin Flour Milling Co., Ltd., priority 1994, dated 1997)
Where a name gives a salt, the structure may show the parent alone. Read-outs that look alike come from different tables or passages of the source.

Columns and labels:
[1] = target: T1, 5-HT3 receptor (Rattus norvegicus, UniProt P35563); test: 5-HT3 receptor antagonist activity: inhibition of 2-Me-5-HT-induced reduction in heart rate in anesthetized rats; assay type: in vivo; details: iv (jugular vein) 5 minutes before 2-Me-5-HT 0.1 mg/kg, read-out: IC50 (the source's name)
T1 construct: from tissue; host or cells: whole anesthetized rat (in vivo); endogenous receptor
T1 sequence (P35563 24-483): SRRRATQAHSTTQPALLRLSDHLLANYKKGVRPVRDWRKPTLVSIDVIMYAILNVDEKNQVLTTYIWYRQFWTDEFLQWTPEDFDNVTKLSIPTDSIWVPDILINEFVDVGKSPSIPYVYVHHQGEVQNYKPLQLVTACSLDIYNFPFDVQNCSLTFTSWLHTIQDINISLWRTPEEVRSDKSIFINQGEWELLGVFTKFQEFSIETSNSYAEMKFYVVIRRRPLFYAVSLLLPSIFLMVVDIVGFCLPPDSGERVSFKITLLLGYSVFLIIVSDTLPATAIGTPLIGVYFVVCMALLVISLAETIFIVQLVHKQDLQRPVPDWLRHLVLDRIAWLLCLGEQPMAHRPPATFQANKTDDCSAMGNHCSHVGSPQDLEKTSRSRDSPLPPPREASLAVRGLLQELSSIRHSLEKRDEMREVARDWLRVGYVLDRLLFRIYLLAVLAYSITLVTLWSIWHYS
Experimental: For the purpose of studying a receptor selectivity of the present compounds, the 5-HT3 receptor antagonist activity was tested in the following manner. Rats were anesthetized with urethane and heart rate was recorded through femoral artery. The 5-HT3 selective agonist, 2-methyl-5-hydroxytryptamine (2-Me-5-HT) was administered at 0.1 mg/kg through carotid arteries and transient reduction in heart rate was recorded. The test. compounds were administered through jugular vein at 5 minutes before the administration of 2-Me-5-HT, inhibitory rate of reduction in heart rate by the administration of 2-Me-5-HT was calculated and IC50 value was calculated from the inhibitory rate.

[2] = target: 5-HT4 receptor (Cavia porcellus, UniProt O70528); test: Increase in contraction height of electrically stimulated longitudinal muscle of isolated guinea pig ileum (LMMP); assay type: cell-based; set-up: key: +: indicates the increase in the contraction height; -: indicates no effect
Chain of 5-HT4 receptor (O70528 whole entry): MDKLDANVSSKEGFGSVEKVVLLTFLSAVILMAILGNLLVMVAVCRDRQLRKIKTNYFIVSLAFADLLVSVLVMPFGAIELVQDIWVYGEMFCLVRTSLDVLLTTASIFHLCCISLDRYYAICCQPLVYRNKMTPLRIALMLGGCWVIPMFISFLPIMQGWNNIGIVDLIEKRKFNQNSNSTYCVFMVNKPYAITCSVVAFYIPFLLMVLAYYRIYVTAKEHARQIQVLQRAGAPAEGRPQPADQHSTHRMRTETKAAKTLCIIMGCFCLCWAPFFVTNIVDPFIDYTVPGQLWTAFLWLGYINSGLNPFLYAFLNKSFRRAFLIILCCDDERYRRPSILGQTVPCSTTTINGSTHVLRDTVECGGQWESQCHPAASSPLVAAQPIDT
Description: Ileum was excised from guinea pigs to prepare longitudinal muscle samples with approximately 2 cm length. The sample was suspended in Krebs-Henseleit liquid bath supplied with a mixed gas (95% O2, 5% CO2) and subjected to electrical stimulation (1 msec, 0.1 Hz) to record contraction force isometrically. The test compounds were. dissolved in distilled water or DMSO and tested at a concentration of 10^-7 M (but 10^-6 M for Compound 11). The results are shown by the presence or absence of the increase in the contraction height by electrical stimulation before administration of the compound, wherein the symbol "+" indicates the increase in the contraction height, while "-" indicates no effect.
Whether or not the action of the above compounds is that via activation of 5-HT4 receptors was investigated using as 5-HT4 receptor antagonist, SDZ 205-557 (2-methoxy-4-amino-5-chlorobenzoic acid 2-(diethylamino)ethyl ester) described in Naunyn-Schmiedeberg's Arch Pharmacol (1992) 345:387-393. Thus, the investigation as to whether SDZ 205-557 can antagonize the increase in the contraction height of the above compounds using the longitudinal muscle preparation of the isolated guinea pig ileum can reveal that such increase in the contraction height is the action via activation of 5-HT4 receptors.

[3] = target: T2, 5-HT4 receptors (Rattus norvegicus, UniProt Q62758); test: Relaxation of carbachol-contracted rat oesophageal tunica muscularis mucosae; assay type: cell-based
T2 construct: from tissue; host or cells: rat oesophageal tunica muscularis mucosae
T2 sequence (Q62758 whole entry): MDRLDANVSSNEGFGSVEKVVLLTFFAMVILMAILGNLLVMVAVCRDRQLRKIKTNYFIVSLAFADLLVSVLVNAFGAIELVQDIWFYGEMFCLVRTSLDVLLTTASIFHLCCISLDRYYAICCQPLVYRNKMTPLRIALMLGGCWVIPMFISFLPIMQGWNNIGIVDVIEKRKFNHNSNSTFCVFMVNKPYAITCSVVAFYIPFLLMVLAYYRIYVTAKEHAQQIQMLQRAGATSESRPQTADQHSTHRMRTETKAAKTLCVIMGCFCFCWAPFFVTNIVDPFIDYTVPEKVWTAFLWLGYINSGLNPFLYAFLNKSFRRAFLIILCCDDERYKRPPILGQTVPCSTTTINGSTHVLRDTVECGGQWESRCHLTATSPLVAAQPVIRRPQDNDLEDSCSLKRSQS
Experimental: The agonistic activity of oxazabicyclo derivatives and Mosapride on 5-HT4 receptors was determined by the procedure mentioned in Naunyn-Schmiedeberg's Arch Pharmacol (1991) 343:439-446.
The rat oesophageal tunica muscularis mucosae were suspended in organ both containing Krebs-Henseleit solution aerated with a mixed gas (95% O2, 5% CO2) and contracted with carbachol (1×10^-6 M). After the contraction was stabilized, the cumulative administration of the compounds was performed to determine the relaxation of the rat oesophagus pre-contracted with carbachol. The concentration (ED50) to cause 50% relaxation of the carbachol-induced contraction was measured. The result is expressed in terms of -log ED50 and shown in the following table in which higher numerical value indicates higher activity.

SMILES | EC50 [3] | also measured
CCCCN1[C@@H]2COC[C@H]1C[C@@H](NC(=O)c1nn(C(C)CC)c3ccccc13)C2 (relative stereo) [Example 8] | 631 nM | ED50 [1]: 0.0297 mg/kg; LMMP: presence or absence of the increase in the contraction height by electrical stimulation ([2]; test concentration 10^-7 M): +
CCCCN1[C@@H]2COC[C@H]1C[C@@H](NC(=O)c1nn(C(C)CCC)c3ccccc13)C2 (relative stereo) [Example 9, N-[endo-9-(n-Butyl)-3-oxa-9-azabicyclo[3.3.1]non-7-yl]-1-(2-pentyl)-indazole-3-carboxamide] | 776 nM | 
CC#CC(C)n1nc(C(=O)N[C@H]2C[C@H]3COC[C@@H](C2)N3CCCC)c2ccccc21 (relative stereo) [Example 17, N-[endo-9-(n-Butyl)-3-oxa-9-azabicyclo[3.3.1]non-7-yl]-1-(1-methyl-2-butynyl)indazole-3-carboxamide] | 2240 nM | 
CN1[C@@H]2COC[C@H]1C[C@@H](NC(=O)c1nn(C)c3ccccc13)C2 [Comparative Example 1, N-[endo-9-Methyl-3-oxa-9-azabicyclo[3.3.1]non-7-yl]-1-methylindazole-3-carboxamide, reference compound] |  | LMMP: presence or absence of the increase in the contraction height by electrical stimulation ([2]; test concentration 10^-7 M): -; EC50 ([3]; ED50 = concentration to cause 50% relaxation of contraction by carbachol (1×10^-6 M), cumulative administration, read-out: Activity (-log ED50) (converted)): 115000 nM
CC(C)n1nc(C(=O)N[C@H]2C[C@H]3COC[C@@H](C2)N3C)c2ccccc21 [Comparative Example 2, N-[endo-9-Methyl-3-oxa-9-azabicyclo[3.3.1]non-7-yl]-1-isopropylindazole-3-carboxamide, reference compound] | 1510 nM | ED50 [1]: 0.00032 mg/kg; LMMP: presence or absence of the increase in the contraction height by electrical stimulation ([2]; test concentration 10^-7 M): +
CCCCN1[C@@H]2COC[C@H]1C[C@@H](NC(=O)c1nn(CCC)c3ccccc13)C2 [Example 1, N-[endo-9-(n-Butyl)-3-oxa-9-azabicyclo[3.3.1]non-7-yl]-1-(n-propyl)indazole-3-carboxamide] | 3800 nM | 
CCCN1[C@@H]2COC[C@H]1C[C@@H](NC(=O)c1nn(C(C)C)c3ccccc13)C2 [Example 2, N-[endo-9-(n-Propyl)-3-oxa-9-azabicyclo[3.3.1]non-7-yl]-1-isopropyl-indazole-3-carboxamide] | 2880 nM | ED50 [1]: 0.0089 mg/kg; LMMP: presence or absence of the increase in the contraction height by electrical stimulation ([2]; test concentration 10^-7 M): +
CCCN1[C@@H]2COC[C@H]1C[C@@H](NC(=O)c1nn(C(CC)CC)c3ccccc13)C2 [Example 3, N-[endo-9-(n-Propyl)-3-oxa-9-azabicyclo[3.3.1]non-7-yl]-1-(3-pentyl)-indazole-3-carboxamide] | 1660 nM | 
CCCCN1[C@@H]2COC[C@H]1C[C@@H](NC(=O)c1nn(CC)c3ccccc13)C2 [Example 4, N-[endo-9-(n-Butyl)-3-oxa-9-azabicyclo[3.3.1]non-7-yl]-1-ethylindazole-3-carboxamide] | 10200 nM | 
CCCCN1[C@@H]2COC[C@H]1C[C@@H](NC(=O)c1nn(CCCC)c3ccccc13)C2 [Example 6, N-[endo-9-(n-Butyl)-3-oxa-9-azabicyclo[3.3.1]non-7-yl]-1-(n-butyl)-indazole-3-carboxamide] | 4680 nM | 
CCCCN1[C@@H]2COC[C@H]1C[C@@H](NC(=O)c1nn(CC(C)C)c3ccccc13)C2 [Example 7, N-[endo-9-(n-Butyl)-3-oxa-9-azabicyclo[3.3.1]non-7-yl]-1-isobutyl-indazole-3-carboxamide] | 5250 nM | 
CCCCN1[C@@H]2COC[C@H]1C[C@@H](NC(=O)c1nn(C(CC)CC)c3ccccc13)C2 [Example 10, N-[endo-9-(n-Butyl)-3-oxa-9-azabicyclo[3.3.1.]non-7-yl]-1-(3-pentyl)indazole-3-carboxamide] | 851 nM | 
C=CCn1nc(C(=O)N[C@H]2C[C@H]3COC[C@@H](C2)N3CCCC)c2ccccc21 [Example 11, N-[endo-9-(n-Butyl)-3-oxa-9-azabicyclo[3.3.1]non-7-yl]-1-allyl-indazole-3-carboxamide] | 3550 nM | LMMP: presence or absence of the increase in the contraction height by electrical stimulation ([2]; test concentration 10^-6 M (Compound 11)): +
CCCCN1[C@@H]2COC[C@H]1C[C@@H](NC(=O)c1nn(CC=C(C)C)c3ccccc13)C2 [Example 12, N-[endo-9-(n-Butyl)-3-oxa-9-azabicyclo[3.3.1]non-7-yl]-1-(3-methyl-2-butenyl)indazole-3-carboxamide] | 6760 nM | 
CCCCN1[C@@H]2COC[C@H]1C[C@@H](NC(=O)c1nn(CC3CC3)c3ccccc13)C2 [Example 13, N-[endo-9-(n-Butyl)-3-oxa-9-azabicyclo[3.3.1]non-7-yl]-1-(cyclopropylmethyl)indazole-3-carboxamide] | 2090 nM | LMMP: presence or absence of the increase in the contraction height by electrical stimulation ([2]; test concentration 10^-7 M): +
CCCCCN1[C@@H]2COC[C@H]1C[C@@H](NC(=O)c1nn(C(C)C)c3ccccc13)C2 [Example 14, N-[endo-9-(n-Pentyl)-3-oxa-9-azabicyclo[^3.3.1]non-7-yl]-1-isopropylindazole-3-carboxamide] | 1480 nM | ED50 [1]: 0.0281 mg/kg; LMMP: presence or absence of the increase in the contraction height by electrical stimulation ([2]; test concentration 10^-7 M): +
CCCCCN1[C@@H]2COC[C@H]1C[C@@H](NC(=O)c1nn(C(CC)CC)c3ccccc13)C2 [Example 15, N-[endo-9-(n-Pentyl)-3-oxa-9-azabicyclo[3.3.1]non-7-yl]-1-(3-pentyl)-indazole-3-carboxamide] | 813 nM | 
CCCCN1[C@@H]2COC[C@H]1C[C@@H](NC(=O)c1nn(C3CCCC3)c3ccccc13)C2 [Example 16, N-[endo-9-(n-Butyl)-3-oxa-9-azabicyclo[3.3.1]non-7-yl]-1-cyclopentyl-indazole-3-carboxamide] | 7760 nM | 
CCCCN1[C@@H]2COC[C@H]1C[C@@H](NC(=O)c1nn([C@@H](C)CC)c3ccccc13)C2 [Example 18, (S)-(+)-N-[endo-9-(n-Butyl)-3-oxa-9-azabicyclo[3.3.1]non-7-yl]-1-(sec-butyl)indazole-3-carboxamide] | 437 nM | ED50 [1]: 0.0183 mg/kg
CCCCN1[C@@H]2COC[C@H]1C[C@@H](NC(=O)c1nn([C@H](C)CC)c3ccccc13)C2 [Example 19, (R)-(-)-N-[endo-9-(n-Butyl)-3-oxa-9-azabicyclo[3.3.1]non-7-yl]-1-(sec-butyl)indazole-3-carboxamide] | 1050 nM | 
CCCCN1[C@@H]2COC[C@H]1C[C@@H](NC(=O)c1nn(C(C)C)c3ccc(O)cc13)C2 [Example 26, N-[endo-9-(n-Butyl)-3-oxa-9-azabicyclo[3.3.1]non-7-yl]-5-hydroxy-1-isopropylindazole-3-carboxamide (hydrochloride)] | 10500 nM | 
CCCCN1[C@@H]2COC[C@H]1C[C@@H](NC(=O)c1nn(C(C)C)c3c(O)cccc13)C2 [Example 27, N-[endo-9-(n-Butyl)-3-oxa-9-azabicyclo[3.3.1]non-7-yl]-7-hydroxy-1-isopropylindazole-3-carboxamide (hydrochloride)] | 15800 nM | 
CC(C)n1nc(C(=O)N[C@H]2C[C@H]3COC[C@@H](C2)N3)c2ccccc21 [Example 28, N-[endo-3-Oxa-9-azabicyclo[3.3.1]non-7-yl]-1-isopropylindazole-3-carboxamide (hydrochloride)] | 468 nM | 
